From PubChem BioAssay (NCI)
Several values for one entry are separate records, joined by “and”; a condition that tells them apart may be missing. Equal values may be shown once.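 Five concentrations, 48 hours, 96-well plates. At the GI50, growth is halved. The concentration for full growth arrest is given as TGI.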

Legend:
Assay in all cases: NCI anticancer screen, dose series, 48 h
786-0 renal = tested on: 786-0 renal
COLO 205 colon = tested on: COLO 205 colon
HCC-2998 colon = tested on: HCC-2998 colon
MDA-MB-231 breast = tested on: MDA-MB-231 breast
OVCAR-8 ovarian = tested on: OVCAR-8 ovarian
SF-268 CNS = tested on: SF-268 CNS
SF-295 CNS = tested on: SF-295 CNS
SK-OV-3 ovarian = tested on: SK-OV-3 ovarian
SW-620 colon = tested on: SW-620 colon
UO-31 renal = tested on: UO-31 renal

SMILES	GI50 (786-0 renal) [µM]	TGI (786-0 renal) [µM]	GI50 (COLO 205 colon) [µM]	TGI (COLO 205 colon) [µM]	GI50 (HCC-2998 colon) [nM]	TGI (HCC-2998 colon) [µM]	GI50 (MDA-MB-231 breast) [nM]	TGI (MDA-MB-231 breast) [µM]	GI50 (OVCAR-8 ovarian) [nM]	TGI (OVCAR-8 ovarian) [µM]	GI50 (SF-268 CNS)	TGI (SF-268 CNS) [µM]	GI50 (SF-295 CNS) [µM]	TGI (SF-295 CNS) [µM]	GI50 (SK-OV-3 ovarian) [µM]	TGI (SK-OV-3 ovarian) [µM]	GI50 (SW-620 colon) [nM]	TGI (SW-620 colon) [µM]	GI50 (UO-31 renal) [nM]	TGI (UO-31 renal) [µM]
COc1ccc(C(=O)c2no[n+]([O-])c2C(=O)c2ccc(OC)cc2)cc1	2.62	6.32	1.77	3.37	17500	31.6	2770	8.16	2670	6.6	3.11 µM	7.98	17.8	34.7	18	32	1890	3.42	588	1.17
O=C1/C(=C/c2ccc([N+](=O)[O-])s2)Oc2ccc(Br)cc21	0.565	4.84	0.47	1.86	443	1.68	201	0.436	370	> 100	0.256 µM	0.684	1.24	3.35	2.09	5.04	242	0.664	166	0.346
Nc1ncnc2c1ncn2C1OC(F)(COS(N)(=O)=O)C(O)C1O (configuration not stated)	> 100	> 100	> 100	> 100	> 100000	> 100	> 100000	> 100	> 100000	> 100	> 100 µM	> 100	> 100	> 100	> 100	> 100	> 100000	> 100	> 100000	> 100
O=C1c2ccccc2-n2c1nc1ccc([N+](=O)[O-])cc1c2=O		> 100		> 100		> 100		> 100		46.6		> 100		79.7		> 100		> 100		> 100
O=C(Nc1cccc2[nH]c(C(F)(F)F)nc12)c1ccc(Br)cc1F	4.05	15.1	2.63	6.33	4800	16	2170	6.19	3140	15.6	4.17 µM	21.4	2.94	10.3	2.64	9.27	3380	13.2	1980	7.36
O=C1C2C3C=CC(C2C(=O)N1CN1CCOCC1)C1C2C(=O)N(CN4CCOCC4)C(=O)C2C31 (configuration not stated)		> 60.9		> 56.9		> 61.2		> 100		> 69.2		> 64		98.9		> 100		> 69.8		> 84.6
C[C@H]1CCC/C=C/[C@@H]2C[C@H](O)C[C@H]2[C@H](O)C(O)C(O)C(=O)O1 (some centres not stated)	0.788	> 100	4.07	> 100	2150	> 22.4	2500	4.84	1160	5.11	1.19 µM	> 100	4.66	> 100	3.75	> 100	3260	> 100	3440	> 76.1
CC(C)C[C@H](NC(=O)[C@@H](N)Cc1cccc2ccccc12)B(O)O	0.207		1.92		21		798		1620		0.246 µM and 0.0326 µM		0.313		2		231		739	
COc1cccc(/C=C2\COc3ccc(O)c(O)c3C2=O)c1OC	1.89	5.62	3.01	8.38	1990	3.96	3320	13.4	2760	20.9	2.12 µM	10.3	6.07	19.1	7.18	21	2100	5.44	1100	2.4
O=NN(CC(=O)NNc1ccccc1)CC(=O)NNc1ccccc1	7.85	> 100	5.69	> 59.2	4890	> 100	3540	> 100	9880	> 100	22.1 µM	> 100	2.34	7.81	> 100	> 100	4210	> 100	2220	> 100
C=CC(=O)N1CCN(c2nc(OC[C@@H]3CCCN3C)nc3c(F)c(-c4nc(N)cc(C)c4C(F)(F)F)c(Cl)cc23)[C@@H](C)C1	3.6	15.3	1.86	3.5	1250	2.57	1740	3.27	1640	3.09	1.59 µM	3.19	4.74	16.9	2.62	6.42	1950	3.71	1920	5.01
Cc1nc2ccccc2c(/C=C/c2ccc(C(F)(F)F)cc2)c1C(=O)/C=C/c1ccccc1	1.58	3.07	1.55	3.82	1570	3.29	1740	3.65	1640	4.91			1.77	3.22	1.54	2.98			1080	2.27
N#C/C(=C\c1ccccn1)c1nc2ccccc2o1	35.3	> 100	44.9	> 100	25100	50.2	27900	> 100	36200	> 100	31.3 µM	> 100	84.2	> 100	45.9	> 100	17500	37.1	18800	59.7
C(#Cc1ccccc1C#Cc1cnccn1)c1cnccn1	30.5	> 100	54.8	> 100	32200	> 100	21400	> 71.9	38200	> 72.6	17.3 µM	55.3	30.3	> 74	56	> 100	40200	> 100	> 40300	> 68.4
CCc1n(Cc2ccc3ccccc3c2)cc[n+]1Cc1ccc2ccccc2c1	1.52	3.04	0.376	1.73	518	1.85	392	1.44	760	3.13	0.817 µM	2.42	1.43	4	1.46	5.73	964	2.55	2220	8.86
Cc1ccc(S(=O)(=O)NC(=O)Nc2ncn[nH]2)cc1		> 100		> 100		> 100		> 100		> 100		> 100		> 100		> 100		> 100		> 100
Nc1ncnc2occ(-c3ccc(NC(=O)Nc4cccc(C(F)(F)F)c4)cc3)c12	4.46	10	4.53	9.16	6110	14.3	5800	16.4	2850	8.26	3.54 µM	9.83	3.76	15.7	4.91	17.9	6770	20.2	2880	11
O=C(/C=C/c1cccc(Cl)c1)c1ccccc1	10.6	22.8	16.8	31.7	13000	26.7	12200	28.5	3320	11.4	11.5 µM	26.2	3.88	18	16.7	30.9	1470	2.97	6550	21.9
O=C1/C(=C/c2ccccc2)CN(C(=O)/C=C/c2ccccc2)C/C1=C\c1ccccc1		8.27		19.4		14.2		10.9		9.78		38.7		17		57.9		5.28		20.6
Cc1nc2ccccc2c(/C=C/c2ccc(F)cc2)c1C(=O)/C=C/c1ccccc1	2.03	4.36			1760	3.32	2240	6.33	2620	7.75	3.45 µM	> 100	4.72	> 100	4.72	> 100	2900	> 100	1290	2.67
CC(C)OC(=O)NNc1c(Cl)cc(Cl)cc1Cl		> 100		> 100		> 100		> 100		> 100		> 100		> 100		> 100		> 100		> 100
CC(=O)OC1C(C)OC(Oc2c(-c3ccc(O)cc3)oc3cc(O)cc(O)c3c2=O)C(O)C1OC(C)=O (configuration not stated)	48.2	> 100	> 67.3	> 100	21900	55.2	21100	63.7	29000	> 84.9	27 µM	> 89.5	29.9	> 100	56.4	> 100	35800	> 100	39300	> 100
CCCCCCCCCCCCNCCCc1ccccc1	1.8	3.33	1.87	3.43	1750	3.23	1610	3.12	1750	3.39	1.87 µM	3.85	1.93	3.62	2.37	5.37	1640	3.28	1860	4.35
Cc1nc2sc(C(=O)Nc3cccc4c3OCCO4)c(N)c2cc1C(C)O (configuration not stated)	5	> 100	4.27	> 100	13700	> 100	36300	> 100	6480	> 100	> 100 µM	> 100	5.04	> 100	5.75	> 100	3340	> 100	7300	> 100
Nc1ccccc1SC(CC(=O)c1ccccc1)c1c(Cl)cccc1Cl (configuration not stated)	9.73	23.2	10.9	29.9	2610	5.73	3860	20.4	2630	9.61	3.43 µM	13.4	5.59	19.1	12.1	28.8	2280	5.21	1270	4.64
COc1ccc(/C(=N/O)c2cc(F)c(F)c(OC)c2F)cc1O	10.5	> 100	5.46	25.6	2010	> 100	2460	> 100	3100	> 100	0.839 µM	> 100	0.392	18.2	0.523	> 100	435	> 100	1360	90.9
O=C1c2c[n+](Cc3ccccc3)ccc2-c2nc3ccccc3c3ccnc1c23	0.829	2.76	0.409	1.11	609	1.74	711	3.21			0.765 µM	3.66	0.585	5.71	0.568	2.56	450	3.71	756	17
